The values below come from patent US20190022039A1, “COMPOUND HAVING ENHANCING ACTIVITY FOR GLUCAGON-LIKE PEPTIDE-1 RECEPTOR ACTIONS” (AJINOMOTO CO., INC., priority 2016, published 2019).

This assay concerns the target T1, human GLP-1R (Homo sapiens, UniProt P43220).
T1 construct: expressed in transfected cells; host or cells: PEAK RAPID-derived Gα15-trans48 LD stably expressing cells (PRG48), transiently transfected with Lipofectamine 2000
Put plainly: GLP-1 receptor in vitro calcium assay (intracellular free calcium concentration change induced via GLP-1 receptor). To be noted: for EC50: PRG48 cells transfected with human GLP-1R, compound added with 250 pM GLP-1, Ca2+ response ΔF/F, read-out: Ca EC50 value; for GLP-1 receptor action enhancing activity (vs BETP): intensity compared to BETP, activity of BETP as 1. Type of assay: cell-based. How it is done:
The supernatant was removed by centrifugation (1,200 rpm, 3 min), and the cells were suspended at 4×10^6 cells/mL in 5% FBS DMEM/Ham's F-12. 1.0 mL thereof was seeded in a 15 cm dish and cultured (37° C., 5% CO2) overnight. The next day, the medium of the cultured PRG48 cells was replaced with 5% FBS DMEM/Ham's F-12 medium (30 mL), human GLP-1R gene mixture solution (GLP-1R/pc.DNA3.1(+) 60 μg) prepared using 6.0 mL of Opti-MEM (invitrogen) and 120 μL of Lipofectamin 2000 (invitrogen) was slowly added to the cells, and cultured (37° C., 5% CO2) for 6 hr to introduce the gene. […] The cells were counted, suspended at 0.5×10^6 cells/mL in 5% FBS DMEM/Ham's F-12 medium, and seeded in each well of D-Lysine coat 96 well plate (BD Bioscience) at 7.0×10^4 cells. After static adhesion at room temperature for 1 hr, the cells were cultured overnight (37° C., 5% CO2). The medium in the Cultured 96 well was entirely discarded, 150 μL of intracellular calcium measurement staining solution Calcium assay kit Express (Molecular Device) diluted 80-fold with Assay buffer (20 mM HEPES, 146 mM NaCl, 1 mM MgSO4, 1.39 mM glucose, 1 mM CaCl2, 2.5 mM Probenecid, 0.05% Casein Enzymatic Hydrolysate) was added, and the mixture was stood at 37° C. for 30 min, and then at room temperature for 45 min to perform staining. After staining, 250 pM GLP-1 and the compound were added and Ca^2+ response was observed by using FDSSμCELL (Hamamatsu Photonics K.K.). Each evaluation compound was dissolved in DMSO, further diluted with Assay buffer and used.
For evaluation, the fluorescence values (Ex480:Em540) before and after addition were measured, and changes in the intracellular free calcium concentration produced via GLP-1R receptor by the addition were quantitatively examined. For the measurement and analysis of the fluorescence values, a soft (FDSS7000EX) attached to the FDSSμCELL was used, and ΔF/F value ((maximum fluorescence value after stimulation−minimum fluorescence value after stimulation)/fluorescence value before stimulation) was calculated. Using the obtained ΔF/F values, EC50 value was calculated by Prism5.

T1 sequence (P43220 24-463): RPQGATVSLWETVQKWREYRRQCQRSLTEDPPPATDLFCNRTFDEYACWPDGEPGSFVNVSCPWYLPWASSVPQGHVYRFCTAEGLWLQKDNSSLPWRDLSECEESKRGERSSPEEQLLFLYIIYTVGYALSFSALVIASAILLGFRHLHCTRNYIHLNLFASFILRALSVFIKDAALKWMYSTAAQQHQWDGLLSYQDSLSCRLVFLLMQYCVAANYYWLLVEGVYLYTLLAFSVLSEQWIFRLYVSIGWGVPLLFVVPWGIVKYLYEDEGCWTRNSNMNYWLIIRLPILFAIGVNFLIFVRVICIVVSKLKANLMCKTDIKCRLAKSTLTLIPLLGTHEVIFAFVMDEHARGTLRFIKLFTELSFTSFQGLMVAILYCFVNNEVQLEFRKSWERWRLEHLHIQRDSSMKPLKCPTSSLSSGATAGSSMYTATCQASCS

Regarding `CCCCCCNc1ccc(S(=O)(=O)Nc2cccc(NC(=O)N[C@H](Cc3c[nH]c4ccccc34)C(=O)NC(C)CCCC(C)C)c2)cn1` (some centres unmarked) [Compound 110], the EC50 was found to be 4.4 nM and the “GLP-1 receptor action enhancing activity (vs BETP)” value was found to be 5731.
Taken in the same sequence, the figures for `Cc1ccc(S(=O)(=O)Nc2ccc(N(C)C(=O)N[C@H](Cc3ccccc3)C(=O)OC(C)(C)C)cc2)cc1` [Compound 86] were 430 nM and 58.
For `CCC(CC)CNC(=O)[C@@H](Cc1ccccc1)NC(=O)Nc1ccc(NS(=O)(=O)c2ccc(C)cc2)cc1` [Compound 10], in that order: 380 nM and 67.
Taken in the same sequence, the figures for `COc1ccc(CNC(=O)[C@@H](Cc2ccccc2)NC(=O)Nc2ccc(NS(=O)(=O)c3ccc(C)cc3)cc2)cc1` [Compound 25] were 1400 nM and 18.
Regarding `CC(C)CCCC(C)NC(=O)[C@@H](Cc1cccnc1)NC(=O)Nc1cccc(NS(=O)(=O)c2ccc(C(C)(C)C)cc2)c1` (some centres unmarked) [Compound 103], the EC50 is 130 nM and the “GLP-1 receptor action enhancing activity (vs BETP)” value stood at 195.
For `COCCCNC(=O)[C@@H](CC1CCCCC1)NC(=O)Nc1ccc(NS(=O)(=O)c2ccc(C(C)(C)C)cc2)cc1` [Compound 107], in that order: 720 nM and 35.
`Cc1ccc(S(=O)(=O)Nc2ccc(NC(=O)N[C@H](Cc3ccccc3)C(=O)NCCC3CCCCC3)cc2)cc1` [Compound 22]: the half-maximal effective concentration (EC50) worked out at 220 nM and the “GLP-1 receptor action enhancing activity (vs BETP)” value is given as 116.
With `CCCCCCNc1ccc(S(=O)(=O)Nc2cccc(NC(=O)N[C@H](CC3CCCCC3)C(=O)NC(C)CCCC(C)C)c2)cn1` (some centres unmarked) [Compound 109], the concentration giving a half-maximal response (EC50) came to 11 nM and the “GLP-1 receptor action enhancing activity (vs BETP)” value is 2311.
`Cc1ccccc1S(=O)(=O)Nc1ccc(NC(=O)N[C@@H](Cc2ccccc2)C(=O)OC(C)(C)C)cc1` [Compound 78]: the EC50 was found to be 1700 nM and the “GLP-1 receptor action enhancing activity (vs BETP)” value amounted to 15.
With `Cc1cc(C)c(S(=O)(=O)Nc2ccc(NC(=O)N[C@@H](Cc3ccccc3)C(=O)OC(C)(C)C)cc2)c(C)c1` [Compound 80], the EC50 turned out to be 380 nM and the “GLP-1 receptor action enhancing activity (vs BETP)” value is 67.
`Cc1cccc(S(=O)(=O)Nc2ccc(NC(=O)N[C@@H](Cc3ccccc3)C(=O)OC(C)(C)C)cc2)c1` [Compound 77]: the EC50 is 1600 nM and the “GLP-1 receptor action enhancing activity (vs BETP)” value is recorded as 16.
In the case of `Cc1ccc(S(=O)(=O)Nc2ccc(NC(=O)N[C@H](Cc3ccc(Cl)cc3)C(=O)NC3CCCCCC3)cc2)cc1` [Compound 42], the EC50 was 92 nM.
For `Cc1ccc(S(=O)(=O)Nc2ccc(NC(=O)N[C@H](Cc3ccccc3)C(=O)NCC(C)(C)C)cc2)cc1` [Compound 4], the 50% effective concentration (EC50) came out at 1900 nM and the “GLP-1 receptor action enhancing activity (vs BETP)” value is on record as 13.
For `CC(C)CCCC(C)NC(=O)[C@@H](CC1CCCCC1)NC(=O)N(CC(=O)O)c1ccc(NS(=O)(=O)c2ccc(C(C)(C)C)cc2)cc1` (stereo partly drawn) [Compound 108, 2-(4-[(4-tert-butylphenyl)sulfonylamino]-N-{[(1R)-1-(cyclohexylmethyl)-2-(1,5-dimethylhexylamino)-2-oxo-ethyl]carbamoyl}anilino)acetic acid], in that order: 1.5 nM and 17107.
For `CCCCCCN(C)C(=O)[C@@H](Cc1ccccc1)NC(=O)Nc1ccc(NS(=O)(=O)c2ccc(C)cc2)cc1` [Compound 53], in that order: 280 nM and 91.
For the compound `CCCCCC(C)NC(=O)[C@@H](Cc1ccccc1)NC(=O)Nc1ccc(NS(=O)(=O)c2ccc(C)cc2)cc1` (some centres unmarked) [Compound 54], the EC50 was found to be 180 nM and the “GLP-1 receptor action enhancing activity (vs BETP)” value came to 137.
Turning to `CC(C)(C)OC(=O)[C@H](Cc1ccccc1)NC(=O)Nc1ccc(NS(=O)(=O)Cc2ccccc2)cc1` [Compound 74], the 50% effective concentration (EC50) was found to be 1900 nM and the “GLP-1 receptor action enhancing activity (vs BETP)” value worked out at 14.
Take `Cc1ccc(S(=O)(=O)Nc2ccc(NC(=O)N[C@H](Cc3ccccc3)C(=O)N[C@@H](C)c3ccccc3)cc2)cc1` [Compound 31]: the half-maximal effective concentration (EC50) amounted to 480 nM and the “GLP-1 receptor action enhancing activity (vs BETP)” value amounted to 52.
With `CC(C)CCCC(C)NC(=O)[C@H](CC1CCCCC1)NC(=O)Nc1ccc(NS(=O)(=O)c2ccc(C(C)(C)C)cc2)cc1` (some centres unmarked) [Compound 56], the EC50 amounted to 3.8 nM and the “GLP-1 receptor action enhancing activity (vs BETP)” value amounted to 6569.
`Cc1ccc(S(=O)(=O)Nc2ccc(NC(=O)N[C@H](Cc3ccccc3)C(=O)NC[C@H]3CCC4CC3C4(C)C)cc2)cc1` (some centres unmarked) [Compound 60]: the concentration for a half-maximal effect (EC50) stood at 45 nM and the “GLP-1 receptor action enhancing activity (vs BETP)” value is recorded as 560.
In the case of `CC(C)CCCC(C)NC(=O)[C@@H](CC1CCCCC1)NC(=O)Nc1ccc(NS(=O)(=O)c2ccc(N3CCOCC3)nc2)cc1` (stereo partly drawn) [Compound 104, (2R)-3-cyclohexyl-N-(1,5-dimethylhexyl)-2-({4-[(6-morpholino-3-pyridyl)sulfonylamino]phenyl}carbamoylamino)propanamide], the EC50 stood at 480 nM and the “GLP-1 receptor action enhancing activity (vs BETP)” value is listed as 53.
For the compound `Cc1ccc(S(=O)(=O)Nc2ccc(NC(=O)N[C@H](Cc3ccccc3)C(=O)NC(C)(C)C34CC5CC(CC(C5)C3)C4)cc2)cc1` [Compound 61], the EC50 came to 15 nM and the “GLP-1 receptor action enhancing activity (vs BETP)” value is 1710.
For `CCCCC(CC)CNC(=O)[C@@H](Cc1c[nH]c2ccccc12)NC(=O)Nc1ccc(NS(=O)(=O)c2ccc(C(C)(C)C)cc2)cc1F` (stereo partly drawn) [Compound 98, (2R)-2-[[4-[(4-tert-butylphenyl)sulfonylamino]-2-fluoro-phenyl]carbamoylamino]-N-(2-ethylhexyl)-3-(1H-indol-3-yl)propanamide], in that order: 72 nM and 350.
Taken in the same sequence, the figures for `CC(C)(C)OC(=O)[C@H](Cc1ccccc1)NC(=O)Nc1ccc(NS(=O)(=O)c2ccc(C(C)(C)C)cc2)cc1` [Compound 73] were 310 nM and 83.
As to `CSCCCN(c1ccc(NC(=O)N[C@H](CC2CCCCC2)C(=O)NC(C)CCCC(C)C)cc1)S(=O)(=O)c1ccc(C(C)(C)C)cc1` (stereo partly drawn) [Compound 97, (2R)-2-({4-[(4-tert-butylphenyl)sulfonyl-(3-methylsulfanylpropyl)amino]phenyl}carbamoylamino)-3-cyclohexyl-N-(1,5-dimethylhexyl)propanamide], the concentration giving a half-maximal response (EC50) turned out to be 63 nM and the “GLP-1 receptor action enhancing activity (vs BETP)” value was found to be 399.
Taken in the same sequence, the figures for `CCCOc1ccc(-c2noc([C@H](CC3CCCCC3)NC(=O)Nc3ccc(NS(=O)(=O)c4ccc(C(C)(C)C)cc4)cc3)n2)cc1` [Compound 83] were 4.3 nM and 5794.
Taken in the same sequence, the figures for `CCCCCCNC(=O)[C@@H](Cc1c[nH]c2ccccc12)NC(=O)Nc1cccc(NS(=O)(=O)c2ccc(C(C)(C)C)cc2)c1` [Compound 95] were 250 nM and 101.
Taken in the same sequence, the figures for `CCCCC(CC)CNC(=O)[C@H](Cc1c[nH]c2ccccc12)NC(=O)Nc1ccc(NS(=O)(=O)c2ccc(C(C)(C)C)cc2)cc1` (some centres unmarked) [Compound 49] were 10 nM and 2534.
Turning to `CCc1ccc(S(=O)(=O)Nc2ccc(NC(=O)N[C@@H](Cc3ccccc3)C(=O)OC(C)(C)C)cc2)cc1` [Compound 75], the EC50 was found to be 620 nM and the “GLP-1 receptor action enhancing activity (vs BETP)” value stood at 41.
Take `Cc1ccc(S(=O)(=O)Nc2ccc(NC(=O)N[C@H](Cc3ccccc3)C(=O)NCc3ccc(C)o3)cc2)cc1` [Compound 32]: the EC50 stood at 820 nM and the “GLP-1 receptor action enhancing activity (vs BETP)” value was 31.
As to `Cc1ccc(S(=O)(=O)Nc2ccc(NC(=O)N[C@H](Cc3ccccc3)C(=O)NC3CCCCC3)cc2)cc1` [Compound 3], the EC50 is 1700 nM and the “GLP-1 receptor action enhancing activity (vs BETP)” value is 15.
Taken in the same sequence, the figures for `Cc1ccc(S(=O)(=O)Nc2ccc(NC(=O)N[C@H](Cc3ccccc3)C(=O)NCC(F)(F)F)cc2)cc1` [Compound 15] were 42 nM and 599.
Take `CCCCCCNC(=O)[C@@H](Cc1ccc(F)cc1)NC(=O)Nc1ccc(NS(=O)(=O)c2ccc(C)cc2)cc1` [Compound 17]: the EC50 is 520 nM and the “GLP-1 receptor action enhancing activity (vs BETP)” value is 48.
